Laboratory results published in article PMC5748155 (Journal of medicinal chemistry, 2017).

Legend:
Details in all cases: relative to compound 2
[1] = tested on: HCV replicon D168A variant; type: cell-based, Hepatitis C virus
[2] = target: GT1a WT NS3/4A Protease (Hepatitis C virus genotype 1a, UniProt P27958); experiment: Enzyme inhibition assay, wild-type GT1a protease; type: biochemical
[3] = tested on: wild-type HCV replicon; type: cell-based, Hepatitis C virus
[4] = tested on: HCV replicon D168V variant; type: cell-based, Hepatitis C virus
[5] = tested on: NS3/4A protease WT and variants; experiment: Enzyme inhibition assays, statements across WT protease and variants; type: biochemical, Hepatitis C virus

CCc1nc2ccc(OC)cc2nc1O[C@@H]1C[C@H]2C(=O)N[C@]3(C(=O)NS(=O)(=O)C4CC4)C[C@H]3/C=C\CCCCC[C@H](NC(=O)OC3CCCC3)C(=O)N2C1 [Compound 22a, Cyclopentyl ((2R,6S,13aS,14aR,16aS,Z)-14a-((cyclopropylsulfonyl)carbamoyl)-2-((3-ethyl-7-methoxyquinoxalin-2-yl)oxy)-5,16-dioxo-1,2,3,5,6,7,8,9,10,11,13a,14,14a,15,16,16a-hexadecahydrocyclopropa[e]pyrrolo[1,2-a][1,4]diazacyclopentadecin-6-yl)carbamate]
fold enhanced replicon potency against D168A variant [1]: 2 fold | fold increase in biochemical potency against WT protease [2]: 2 fold | fold enhanced replicon potency against WT HCV [3]: 2 fold

COc1ccc2nc(C)c(O[C@@H]3C[C@H]4C(=O)N[C@]5(C(=O)NS(=O)(=O)C6CC6)C[C@H]5/C=C\CCCCC[C@H](NC(=O)OC(C)(C)C)C(=O)N4C3)nc2c1 [Compound 18b]
fold improvement in replicon potency against D168V variant [4]: ~ 2 fold

CCc1nc2ccccc2nc1O[C@@H]1C[C@H]2C(=O)N[C@]3(C(=O)NS(=O)(=O)C4CC4)C[C@H]3/C=C\CCCCC[C@H](NC(=O)OC(C)(C)C)C(=O)N2C1 [Compound 18g]
fold decrease in biochemical potency [5]: about 2 fold
